# Experimental data reported in patent publication US8785445B2 (Array BioPharma Inc., priority 2008, dated 2014).
# Read-outs that look alike come from different tables or passages of the source.
# Target: T1, human DP2 (Homo sapiens, UniProt Q9Y5Y4)
# T1 construct: expressed in transfected cells; membranes prepared
# T1 sequence (Q9Y5Y4 1-395): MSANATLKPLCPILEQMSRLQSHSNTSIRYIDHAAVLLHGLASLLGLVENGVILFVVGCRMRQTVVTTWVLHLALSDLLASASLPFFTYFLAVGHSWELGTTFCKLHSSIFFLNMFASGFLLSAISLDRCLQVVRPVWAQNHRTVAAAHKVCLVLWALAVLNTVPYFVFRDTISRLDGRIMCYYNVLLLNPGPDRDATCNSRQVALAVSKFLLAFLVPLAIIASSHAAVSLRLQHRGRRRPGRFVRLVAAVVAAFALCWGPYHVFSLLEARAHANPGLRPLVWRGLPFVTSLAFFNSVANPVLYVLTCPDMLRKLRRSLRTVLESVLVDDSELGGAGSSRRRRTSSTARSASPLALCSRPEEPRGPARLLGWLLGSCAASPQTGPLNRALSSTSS
# Assay: DP-2 binding inhibition assay (3H-PGD2, membranes of DP2-expressing K562 cells)
# Protocol: The coding sequence of human DP2 was introduced into the human Leukemic cell line K562 by electroporation and stable clones expressing DP2 were obtained by limiting dilution followed by cell surface staining with a rat monoclonal antibody specific for human DP2. Membranes were prepared from one of these DP2 expressing clones and used to determine the ability of the compounds of the present invention to inhibit binding of prostaglandin D2 (PGD2) to its receptor DP2 in the presence of one or more of the following serum protein concentrations, 0.1% BSA, 1% HSA or 4% HSA, by the following procedure. […] After incubation for 60 minutes at room temperature, the assay was transferred to a filtration plate (#MAFB; Millipore Corporation, Bedford, Mass.), and washed three times with binding buffer. Radioactivity was measured by a scintillation counter (TopCount; PerkinElmer Life Sciences, Boston, Mass.). Nonspecific binding was determined by incubations in the presence of 1 μM unlabeled PGD2 or 5 μM of a known DP2 antagonist. IC50 values for inhibition of binding were determined for each compound tested from the inflexion point of a standard 4-parameter logistical curve fitted to the values obtained.
# [1] = 4% HSA, read-out: EC50 (nM) 4% HSA
# [2] = 0.1% BSA, read-out: EC50 (nM) 0.1% BSA
# [3] = 1% HSA, read-out: EC50 (nM) 1% HSA
Compound,EC50 [1] [nM],EC50 [2] [nM],EC50 [3] [nM]
"O=C(Nc1ccc2cccc(Cl)c2n1)c1ccc(Oc2cc3c(cc2Cl)C(C(=O)O)CCO3)cc1 (stereo not shown) [Example 25, 6-Chloro-7-(4-(8-chloroquinolin-2-ylcarbamoyl)phenoxy)chroman-4-carboxylic acid]",5980,–,–
"Cc1cc2ccccc2nc1NC(=O)c1ccc(Oc2cc3c(cc2Cl)C(C(=O)O)CCO3)cc1 (stereo not shown) [Example 26, 6-Chloro-7-(4-(3-methylquinolin-2-ylcarbamoyl)phenoxy)chroman-4-carboxylic acid]",1910,–,–
"O=C(Nc1cccc(-c2ccccc2)n1)c1ccc(Oc2cc3c(cc2Cl)C(C(=O)O)CCO3)cc1 (stereo not shown) [Example 27, 6-chloro-7-(4-(6-phenylpyridin-2-ylcarbamoyl)phenoxy)chroman-4-carboxylic acid]",173,–,–
"O=C(Nc1ccc(C(F)(F)F)nc1)c1ccc(Oc2cc3c(cc2Cl)C(C(=O)O)CCO3)cc1 (stereo not shown) [Example 29, 6-Chloro-7-(4-(6-(trifluoromethyl)pyridin-3-ylcarbamoyl)phenoxy)chroman-4-carboxylic acid]",49.5,34.7,661
"O=C(Nc1ccc2cc(Cl)ccc2n1)c1ccc(Oc2cc3c(cc2Cl)C(C(=O)O)CCO3)cc1 (stereo not shown) [Example 30, 6-Chloro-7-(4-(6-chloroquinolin-2-ylcarbamoyl)phenoxy)chroman-4-carboxylic acid]",134,13,120
"O=C(Nc1cncc(-c2ccccc2)n1)c1ccc(Oc2cc3c(cc2Cl)C(C(=O)O)CCO3)cc1 (stereo not shown) [Example 32, 6-Chloro-7-(4-(6-phenylpyrazin-2-ylcarbamoyl)phenoxy)chroman-4-carboxylic acid]",401,–,–
"O=C(Nc1cccc(-c2ccc(Cl)cc2)n1)c1ccc(Oc2cc3c(cc2Cl)C(C(=O)O)CCO3)cc1 (stereo not shown) [Example 33, 6-Chloro-7-(4-(6-(4-chlorophenyl)pyridin-2-ylcarbamoyl)phenoxy)chroman-4-carboxylic acid]",30,–,–
"Cc1cccc(-c2cccc(NC(=O)c3ccc(Oc4cc5c(cc4C#N)C(C(=O)O)CCO5)cc3)n2)c1C (stereo not shown) [Example 40, 6-Cyano-7-(4-(6-(2,3-dimethylphenyl)pyridin-2-ylcarbamoyl)-phenoxy)-chroman-4-carboxylic acid]",120,–,–
"N#Cc1cc2c(cc1Oc1ccc(C(=O)Nc3cccc(-c4cccc(C(F)(F)F)c4)n3)cc1)OCCC2C(=O)O (stereo not shown) [Example 41, 6-Cyano-7-(4-(6-(3-(trifluoromethyl)phenyl)pyridin-2-ylcarbamoyl)-phenoxy)chroman-4-carboxylic acid]",50.8,–,–
"N#Cc1cc2c(cc1Oc1ccc(C(=O)Nc3cccc(-c4ccc(C(F)(F)F)cc4)n3)cc1)OCCC2C(=O)O (stereo not shown) [Example 42, 6-Cyano-7-(4-(6-(4-(trifluoromethyl)phenyl)pyridin-2-ylcarbamoyl)-phenoxy)chroman-4-carboxylic acid]",36.1,–,–
"N#Cc1cc2c(cc1Oc1ccc(C(=O)Nc3cccc(-c4ccc5c(c4)CCO5)n3)cc1)OCCC2C(=O)O (stereo not shown) [Example 43, 6-Cyano-7-(4-(6-(2,3-dihydrobenzofuran-5-yl)pyridin-2-ylcarbamoyl)-phenoxy)chroman-4-carboxylic acid]",291,–,–
"O=C(Nc1ccc(F)c(-c2ccc(Cl)cc2)n1)c1ccc(Oc2cc3c(cc2Cl)C(C(=O)O)CCO3)cc1 (stereo not shown) [Example 44, Sodium 6-Chloro-7-(4-(6-(4-chlorophenyl)-5-fluoropyridin-2-ylcarbamoyl)phenoxy)chroman-4-carboxylate]",5000,–,–
"N#Cc1cc2c(cc1Oc1ccc(C(=O)Nc3cccc(-c4ccc(Cl)cc4Cl)n3)cc1)OCCC2C(=O)O (stereo not shown) [Example 49, 6-Cyano-7-(4-(6-(2,4-dichlorophenyl)pyridin-2-ylcarbamoyl)phenoxy)chroman-4-carboxylic acid]",87.3,–,–
"N#Cc1cc2c(cc1Oc1ccc(C(=O)Nc3cccc(-c4cccc(Cl)c4)n3)cc1)OCCC2C(=O)O (stereo not shown) [Example 50, 7-(4-(6-(3-Chlorophenyl)pyridin-2-ylcarbamoyl)phenoxy)-6-cyanochroman-4-carboxylic acid]",135,–,–
"N#Cc1cc2c(cc1Oc1ccc(C(=O)Nc3cccc(-c4ccc(Cl)cc4)n3)cc1)OCCC2C(=O)O (stereo not shown) [Example 51, 7-(4-(6-(4-Chlorophenyl)pyridin-2-ylcarbamoyl)phenoxy)-6-cyanochroman-4-carboxylic acid]",51.3,–,–
"COc1ccc(-c2cccc(NC(=O)c3ccc(Oc4cc5c(cc4Cl)C(C(=O)O)CCO5)cc3)n2)cn1 (stereo not shown) [Example 54, Sodium 6-chloro-7-(4-(6′-methoxy-2,3′-bipyridin-6-ylcarbamoyl)phenoxy)chroman-4-carboxylate]",337,–,–
"COc1ccc(-c2cccc(NC(=O)c3ccc(Oc4cc5c(cc4Cl)C(C(=O)O)CCO5)cc3)n2)c(OC)n1 (stereo not shown) [Example 55, Sodium 6-chloro-7-(4-(2′,6′-dimethoxy-2,3′-bipyridin-6-ylcarbamoyl)phenoxy)chroman-4-carboxylate]",258,–,–
"O=C(Nc1cccc(-c2ccccc2Cl)n1)c1ccc(Oc2cc3c(cc2Cl)C(C(=O)O)CCO3)cc1 (stereo not shown) [Example 56, 6-Chloro-7-(4-(6-(2-chlorophenyl)pyridin-2-ylcarbamoyl)phenoxy)chroman-4-carboxylic acid]",582,–,–
"Cc1ccc(-c2cccc(NC(=O)c3ccc(Oc4cc5c(cc4Cl)C(C(=O)O)CCO5)cc3)n2)cc1 (stereo not shown) [Example 57, 6-Chloro-7-(4-(6-p-tolylpyridin-2-ylcarbamoyl)phenoxy)chroman-4-carboxylic acid]",39.4,–,–
"COc1ccc(-c2cccc(NC(=O)c3ccc(Oc4cc5c(cc4Cl)C(C(=O)O)CCO5)cc3)n2)cc1 (stereo not shown) [Example 58, 6-Chloro-7-(4-(6-(4-methoxyphenyl)pyridin-2-ylcarbamoyl)phenoxy)chroman-4-carboxylic acid]",67,–,–

# Other lines, results leading:
EC50 [1] [nM],EC50 [2] [nM],EC50 [3] [nM],Compound
187,–,–,"O=C(Nc1cccc(C(F)(F)F)n1)c1ccc(Oc2cc3c(cc2Cl)C(C(=O)O)CCO3)cc1 (stereo not shown) [Example 28, 6-Chloro-7-(4-(6-(trifluoromethyl)pyridin-2-ylcarbamoyl)phenoxy)chroman-4-carboxylic acid]"
1730,–,–,"O=C(Nc1cc(C(F)(F)F)ccn1)c1ccc(Oc2cc3c(cc2Cl)C(C(=O)O)CCO3)cc1 (stereo not shown) [Example 31, 6-Chloro-7-(4-(4-(trifluoromethyl)pyridin-2-ylcarbamoyl)phenoxy)chroman-4-carboxylic acid]"
241,–,–,"O=C(Nc1cccc(-c2cccc(Cl)c2)n1)c1ccc(Oc2cc3c(cc2Cl)C(C(=O)O)CCO3)cc1 (stereo not shown) [Example 34, 6-Chloro-7-(4-(6-(3-chlorophenyl)pyridin-2-ylcarbamoyl)phenoxy)chroman-4-carboxylic acid]"
50.8,–,–,"O=C(Nc1cccc(-c2ccc(Cl)c(Cl)c2)n1)c1ccc(Oc2cc3c(cc2Cl)C(C(=O)O)CCO3)cc1 (stereo not shown) [Example 52, 6-Chloro-7-(4-(6-(3,4-dichlorophenyl)pyridin-2-ylcarbamoyl)phenoxy)chroman-4-carboxylic acid]"
40.9,–,–,"O=C(Nc1cccc(-c2ccc(Cl)c(C(F)(F)F)c2)n1)c1ccc(Oc2cc3c(cc2Cl)C(C(=O)O)CCO3)cc1 (stereo not shown) [Example 53, 6-Chloro-7-(4-(6-(4-chloro-3-(trifluoromethyl)phenyl)pyridin-2-ylcarbamoyl)phenoxy)chroman-4-carboxylic acid]"
283,–,–,"O=C(Nc1ccc(-c2ccc(C(F)(F)F)cc2Cl)nn1)c1ccc(Oc2cc3c(cc2Cl)C(C(=O)O)CCO3)cc1 (stereo not shown) [Example 59, Sodium 6-chloro-7-(4-(6-(2-chloro-4-(trifluoromethyl)phenyl)pyridazin-3-ylcarbamoyl)phenoxy)chroman-4-carboxylate]"
63,–,–,"O=C(Nc1ccc(-c2ccc(C(F)(F)F)c(Cl)c2)nn1)c1ccc(Oc2cc3c(cc2Cl)C(C(=O)O)CCO3)cc1 (stereo not shown) [Example 60, Sodium 6-chloro-7-(4-(6-(3-chloro-4-(trifluoromethyl)phenyl)pyridazin-3-ylcarbamoyl)phenoxy)chroman-4-carboxylate]"
539,–,–,"O=C(Nc1cnc(-c2ccc(C(F)(F)F)cc2)cn1)c1ccc(Oc2cc3c(cc2Cl)C(C(=O)O)CCO3)cc1 (stereo not shown) [Example 61, Sodium 6-chloro-7-(4-(5-(4-(trifluoromethyl)phenyl)pyrazin-2-ylcarbamoyl)phenoxy)chroman-4-carboxylate]"
327,–,–,"Cc1ccc(-c2ccc(NC(=O)c3ccc(Oc4cc5c(cc4Cl)C(C(=O)O)CCO5)cc3)nn2)cc1 (stereo not shown) [Example 62, Sodium 6-chloro-7-(4-(6-p-tolylpyridazin-3-ylcarbamoyl)phenoxy)chroman-4-carboxylate]"
1460,–,–,"COc1ccc(-c2ccc(NC(=O)c3ccc(Oc4cc5c(cc4Cl)C(C(=O)O)CCO5)cc3)nn2)cc1 (stereo not shown) [Example 63, Sodium 6-chloro-7-(4-(6-(4-methoxyphenyl)pyridazin-3-ylcarbamoyl)phenoxy)chroman-4-carboxylate]"
